Experimental data: US20260376293A1, “METHODS FOR STUDYING GPR158 PHARMACOLOGY AND IDENTIFICATION OF ITS LIGANDS” (UNIVERSITY OF FLORIDA RESEARCH FOUNDATION, INCORPORATED, priority 2022, published 2026)

Tested on: layer II-III pyramidal neurons
Experiment: Whole cell recordings, layer II-III prelimbic cortex neurons, WT mice
Assay type: cell-based, mouse
Conditions: 1 mM
Protocol: FIGS. 14A-14H. Effect of glycine on neuronal excitability. A) Schematic of the electrophysiological recordings in slice preparation targeting mPFC neurons of layer II-III. Experiments were conducted with a cocktail of synaptic blockers: picrotoxin (100 μM) (blockade of GABAA receptor chloride channels), strychnine (1 μM) (antagonist of glycine and acetylcholine ionotropic receptors), CNQX (20 μM) (AMPA receptors antagonist), and APV (50 μM) (NMDAR antagonist). B) Representative traces of voltage responses to a 200 pA current ramp injection under control conditions and after bath application of glycine (1 mM) in WT mice. C) Quantification of changes in excitability by number of action potentials fired in response to 200 pA current ramp (n=8 neurons from 5 mice). Nonparametric t-test; Wilcoxon test, **p<0.01. D) Quantification of changes in excitability by rheobase current under control condition and glycine application (n=8 neurons from 5 mice). Nonparametric t-test; Wilcoxon test, **p<0.01. E) Representative traces of voltage responses to a 200 pA current ramp injection obtained from layer II-III pyramidal neurons in GPR158 KO mice under control conditions and during bath application of glycine (1 mM). F) Quantification of changes in excitability by number of action potentials fired in response to 200 pA current ramp (n=4 neurons/3 mice). Nonparametric t-test; Wilcoxon test, ns=p>0.05. G) Quantification of changes in excitability by rheobase current under control condition and glycine application (n=4 neurons/3 mice). Nonparametric t-test; Wilcoxon test, ns=p>0.05. H) Schematic representation of the proposed mechanism of glycine effects on mGlyR. In 14C, 14D, 14F, and 14G, solid circles (Ctrl), circles with no fill (Glycine), columns with no fill (Ctrl), and columns with dotted fill (Glycine).
FIGS. 15A-15H. Effect of glycine and taurine on excitability of layer V neurons and membrane properties of layer II/III neurons in wild type and GPR158 knockout mice. A) Representative traces of voltage responses to a 200 pA current ramp injection obtained from layer V pyramidal neurons in WT mice under control conditions and during bath application of glycine (1 mM). B) Quantification of glycine effects on neuronal excitability by number of action potentials fired in response to 200 pA current ramp under control condition and glycine application (n=4 neurons/3 mice). Nonparametric t-test; Wilcoxon test, ns=p>0.05. C) Quantification of glycine effects on neuronal excitability by rheobase current under control condition and glycine application (n=4 neurons/3 mice). Nonparametric t-test; Wilcoxon test, ns=p>0.05. D) Resting membrane potential of layer V pyramidal neurons in WT mice under control conditions and during bath application of glycine (n=4 neurons/3 mice). […]

[1] = 200 pA current ramp, synaptic blockers

Compound	resting membrane potential	number of action potentials fired [1]	rheobase current [1]
NCC(=O)O [glycine]	without changes in the resting membrane potential	significantly increased the number of action potentials	decreasing the amount of current necessary to elicit the first action potential
NCCS(=O)(=O)O [taurine, 2-aminoethanesulfonic acid]	–	–	ns
